# Legend:
# [1] = molecular target: T1, recombinant full-length PDE2A protein (Homo sapiens, UniProt O00408); assay: Evaluation of PDE2 phosphodiesterase inhibitory activity in vitro (fluorescence polarization, Transcreener AMP2/GMP2); type: biochemical; settings: IC50 classes; substrate 1 μM cGMP; room temperature one hour
# T1 construct: Expression of recombinant full-length PDE2A protein in insect Sf9 cells; GST (N); made in house; host or cells: insect Sf9 cells (baculovirus)
# Procedure: Experimental objective: The substituted Alexa Fluor 633 fluorescent dye on the AMP/GMP antibodies was detected by the fluorescence polarization analysis to determine the concentration of AMP/GMP produced in the reaction system, which was used to calculate the IC50 values of the test compounds against PDE2 phosphodiesterase.
# The measured buffer solution: 10 mM Tris-HCl, pH 7.5, 5 mM MgCl2, 0.01% Brij 35, 1 mM DTT, and 1% DMSO.
# Enzyme: Expression of recombinant full-length PDE2A protein in insect Sf9 cells using N-terminal GST-tag with baculovirus.
# Transcreener® AMP^2/GMP^2 antibody, AMP2/GMP2 AlexaFluor 633 fluorescent dye.
# The enzyme solution was prepared using freshly prepared buffer solution, and then added to the reaction holes, the DMSO solutions of the test compounds were added by the Echo550 non-contact nanoliter acoustic pipetting system, and then pre-incubated at room temperature for 10 minutes, the reaction was initiated by the addition of the substrate (1 μM cGMP), and then reacted at room temperature for one hour. And then the detection system (Transcreener® AMP^2/GMP^2 antibody, AMP2/GMP2 AlexaFluor 633 fluorescent dye) was added, reacted at room temperature for 90 minutes, the fluorescence polarization was detected using Ex/Em 620/688.
# The fluorescence polarization intensity was converted to nM concentration by AMP/GMP standard curve, The relative enzyme activity relative to DMSO blank was calculated, IC50 values and curves were calculated using Prism software packages (GraphPad Software, San Diego Calif., USA).
# [2] = Pharmacokinetic evaluation of compounds in SD rats; type: in vivo, Sprague Dawley rats; settings: single intravenous injection and oral administration; for bioavailability / clearance / AUC / half-life: male, Sprague-Dawley, rat, plasma; for bioavailability: read-out: Bioavailability F; for clearance: read-out: Clearance rate; for AUC: read-out: Concentration integration AUC; for half-life: read-out: Half-life T1/2 (converted)
# Procedure: Experimental objective: The pharmacokinetics of test compounds in SD rats.
# Sprague Dawley rats (male, 200-300 g, 7-9 weeks old, Shanghai Slack).
# The pharmacokinetic characteristics of rodents after intravenous and oral administration of the compounds were tested according to the standard protocol, in the experiment, the candidate compound was formulated into a clear solution, and the rats were given single intravenous injection and oral administration. Intravenous and oral solvents are a certain proportion of hydroxypropyl βcyclodextrin aqueous solution or physiological saline solution. Blood samples within 24 hours were collected, centrifuged (3000 g) for 15 minutes, the supernatant were separated to obtain the plasma samples, the protein was precipitated by adding a 4 times volume of acetonitrile solution that containing the internal standard, centrifuged and the supernatant was then centrifuged after adding equal volume of water, then the supernatant was injected, the plasma concentration was quantitatively analyzed by LC-MS/MS analysis, and pharmacokinetics parameters such as peak concentration, peak time, clearance rate, half-life, drug area under the curve, bioavailability etc. are calculated.
# T1 sequence (O00408 whole entry, species assumed): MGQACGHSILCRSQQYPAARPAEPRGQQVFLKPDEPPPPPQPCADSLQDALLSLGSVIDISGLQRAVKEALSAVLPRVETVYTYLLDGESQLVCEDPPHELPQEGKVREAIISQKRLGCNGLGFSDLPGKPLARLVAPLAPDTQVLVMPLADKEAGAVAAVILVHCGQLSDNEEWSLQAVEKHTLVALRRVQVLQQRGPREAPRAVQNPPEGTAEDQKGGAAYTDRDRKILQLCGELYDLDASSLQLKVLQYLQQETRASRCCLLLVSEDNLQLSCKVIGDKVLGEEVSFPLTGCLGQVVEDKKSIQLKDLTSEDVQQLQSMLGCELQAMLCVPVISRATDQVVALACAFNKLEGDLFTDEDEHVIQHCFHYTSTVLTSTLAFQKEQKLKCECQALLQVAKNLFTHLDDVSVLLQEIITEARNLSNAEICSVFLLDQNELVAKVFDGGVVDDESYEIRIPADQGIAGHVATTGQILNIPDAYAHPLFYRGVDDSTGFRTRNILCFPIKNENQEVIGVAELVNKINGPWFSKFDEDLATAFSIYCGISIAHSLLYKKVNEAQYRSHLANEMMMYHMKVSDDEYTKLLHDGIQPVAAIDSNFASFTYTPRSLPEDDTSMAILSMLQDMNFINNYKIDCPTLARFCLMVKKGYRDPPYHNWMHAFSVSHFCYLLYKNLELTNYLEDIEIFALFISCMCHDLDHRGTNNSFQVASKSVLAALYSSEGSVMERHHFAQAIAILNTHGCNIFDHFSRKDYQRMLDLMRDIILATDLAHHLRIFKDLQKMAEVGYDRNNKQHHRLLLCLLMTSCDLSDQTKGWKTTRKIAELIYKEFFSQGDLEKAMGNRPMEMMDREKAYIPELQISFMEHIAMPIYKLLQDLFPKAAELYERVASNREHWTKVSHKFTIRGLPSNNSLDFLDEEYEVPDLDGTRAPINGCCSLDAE
Molecule,IC50 [1] [µM],also measured
Cn1cnc2c1c(=O)n(CC1CC(O)(C(F)(F)F)C1)c(=O)n2C (centres unmarked) [Embodiment 5],10 to 50,
"Cn1cnc2c1c(=O)n(Cc1csc(C(C)(O)C(F)(F)F)n1)c(=O)n2C (centres unmarked) [Embodiment 33, 3,7-Dimethyl-1-((2-(1,1,1-trifluoro-2-hydroxypropan-2-yl)thiazol-4-yl)methyl)-1H-purine-2,6-(3H,7H)-dione]",10 to 50,
"Cn1cnc2c1c(=O)n(CCC1CCC(O)(C(F)(F)F)CC1)c(=O)n2C (single isomer, unassigned) [Embodiment 15 isomer 1]",1 to 10,
"Cn1cnc2c1c(=O)n(CC1CCC(O)(C(F)(F)F)CC1)c(=O)n2C (single isomer, unassigned) [Embodiment 12 isomer 2]",1 to 10,bioavailability [2]: 34.1%; clearance [2]: 41 mL/min/kg; AUC [2]: 3.85 µM·h; half-life [2]: 1.6 h
"Cn1cnc2c1c(=O)n(Cc1cccc(C(C)(O)C(F)(F)F)c1)c(=O)n2C (centres unmarked) [Embodiment 26, 3,7-dimethyl-1-(3-(1,1,1-trifluoro-2-hydroxypropan-2-yl)benzyl)-1H-purine-2,6-(3H,7H)-dione]",10 to 50,
Cn1cnc2c1c(=O)n(Cc1cc(C(O)(C(F)(F)F)C(F)(F)F)no1)c(=O)n2C [Embodiment 31],10 to 50,
"Cn1cnc2c1c(=O)n(C[C@H]1CC[C@H](C3(O)CC3)CC1)c(=O)n2C [Embodiment 21, 1-[[trans-4-(1-hydroxycyclopropyl)cyclohexyl]methyl]-3,7-dimethylpurine-2,6-dione]",10 to 50,
Cc1sc(C(C)(O)C(F)(F)F)nc1Cn1c(=O)c2c(ncn2C)n(C)c1=O (centres unmarked) [Embodiment 34],10 to 50,
"Cn1cnc2c1c(=O)n(C[C@H]1CC[C@](O)(C(F)(F)F)CC1)c(=O)n2C [Embodiment 12, 1-(((1S,4S)-4-Hydroxy-4-(trifluoromethyl)cyclohexyl)methyl)-3,7-dimethyl-1H-purine-2,6(3H,7H)-dione]",,Bioavailability F [2]: 41.2%; Clearance rate [2]: 32.7 mL/min/kg; Concentration integration AUC [2]: 5.863 µM·h; Half-life T1/2 [2]: 3.12 h
"Cn1cnc2c1c(=O)n(CC1(C(C)(O)C(F)(F)F)CC1)c(=O)n2C (centres unmarked) [Embodiment 4, 3,7-Dimethyl-1-((1-(1,1,1-trifluoro-2-hydroxypropan-2-yl)cyclopropyl)methyl)-1H-purine-2,6-(3H,7H)-dione]",1 to 10,
"Cn1cnc2c1c(=O)n(CCCCC1(O)CC1)c(=O)n2C [Embodiment 3, 1-(4-(1-Hydroxycyclopropyl)butyl)-3,7-dimethyl-1H-purine-2,6(3H,7H)-dione]",10 to 50,
"CCC(O)(CC)c1ccc(Cn2c(=O)c3c(ncn3C)n(C)c2=O)cc1 [Embodiment 25, 1-(4-(3-Hydroxypentan-3-yl)benzyl)-3,7-dimethyl-1H-purine-2,6(3H,7H)-dione]",1 to 10,
"Cn1cnc2c1c(=O)n(C[C@H]1CC[C@H](C(C)(O)C(F)(F)F)CC1)c(=O)n2C (stereo partly drawn) [Embodiment 19, 3,7-Dimethyl-1-[[trans-4-(2,2,2-trifluoro-1-hydroxy-1-methyl-ethyl)cyclohexyl]methyl]purine-2,6-dione]",10 to 50,
"Cn1cnc2c1c(=O)n(C[C@H]1CC[C@H](C(O)(C(F)(F)F)C(F)(F)F)CC1)c(=O)n2C [Embodiment 20, 3,7-Dimethyl-1-[trans-4-(2,2,2-trifluoro-1-hydroxy-1-trifluoromethyl-ethyl)cyclohexylmethyl]-3,7-dihydro-purine-2,6-dione]",10 to 50,
"CC(C)Cn1cnc2c1c(=O)n(CC1CCC(O)(C(F)(F)F)CC1)c(=O)n2C (single isomer, unassigned) [Embodiment 58 isomer 2, 1-((4-Hydroxy-4-(trifluoromethyl)cyclohexyl)methyl)-7-isobutyl-3-methyl-1H-purine-2,6(3H,7H)-dione]",,bioavailability [2]: 42.6%; clearance [2]: 71.6 mL/min/kg; AUC [2]: 2.49 µM·h; half-life [2]: 0.56 h
"CCC1(O)CCCC(CCn2c(=O)c3c(ncn3C)n(C)c2=O)C1 (centres unmarked) [Embodiment 22, 1-(2-(3-Ethyl-3-hydroxycyclohexyl)ethyl)-3,7-dimethyl-1H-purine-2,6(3H,7H)-dione]",1 to 10,
"Cn1cnc2c1c(=O)n(CC1CC(C(C)(O)C(F)(F)F)C1)c(=O)n2C (single isomer, unassigned) [Embodiment 9 isomer 1]",10 to 50,
"CCC(O)(CC)C1CCC(Cn2c(=O)c3c(ncn3C)n(C)c2=O)CC1 (centres unmarked) [Embodiment 18, 1-((4-(3-Hydroxypentan-3-yl)-cyclohexyl)methyl)-3,7-dimethyl-1H-purine-2,6(3H,7H)-dione]",1 to 10,

# Second part, led by results:
IC50 [1] [µM],Molecule,also measured
10 to 50,"Cn1cnc2c1c(=O)n(Cc1cnc(C(C)(O)C(F)(F)F)s1)c(=O)n2C (centres unmarked) [Embodiment 35, 3,7-Dimethyl-1-((2-(1,1,1-trifluoro-2-hydroxypropan-2-yl)thiazol-5-yl)methyl)-1H-purine-2,6-(3H,7H)-dione]",
1 to 10,"CCn1cnc2c1c(=O)n(CCCCC(O)(CC)CC)c(=O)n2C [Embodiment 42, 7-Ethyl-1-(5-ethyl-5-hydroxyheptyl)-3-methyl-1H-purine-2,6(3H,7H)-dione]",
10 to 50,"Cn1c(=O)n(CC2CCC(O)(C(F)(F)F)CC2)c(=O)c2c1ncn2CC1CC1 (single isomer, unassigned) [Embodiment 50 isomer 1, 7-(Cyclopropylmethyl)-1-((4-hydroxy-4-(trifluoromethyl)cyclohexyl)methyl)-3-methyl-1H-purine-2,6(3H,7H)-dione]",
10 to 50,"Cc1nc(C(C)(O)C(F)(F)F)sc1CCn1c(=O)c2c(ncn2C)n(C)c1=O (centres unmarked) [Embodiment 36, 3,7-Dimethyl-1-(2-(4-methyl-2-(1,1,1-trifluoro-2-hydroxypropan-2-yl)thiazol-5-yl)ethyl)-1H-purine-2,6-(3H,7H)-dione]",
10 to 50,"Cn1c(=O)n(CC2CCC(C)(O)CC2)c(=O)c2c1ncn2CC(F)(F)F (single isomer, unassigned) [Embodiment 46 isomer 2]",
10 to 50,"3,7-Dimethyl-1-[[3-[2,2,2-trifluoro-1-hydroxy-1-(trifluoromethyl)ethyl]cyclobutyl]methyl]purine-2,6-dione [Embodiment 8 isomer 2]",
10 to 50,Cn1c(=O)n(CC2(C)CCC(O)(C(F)(F)F)CC2)c(=O)c2c1ncn2CC1CC1 (centres unmarked) [Embodiment 53],
1 to 10,"CC(C)Cn1cnc2c1c(=O)n(CC1CCC(O)(C(F)(F)F)CC1)c(=O)n2C (centres unmarked) [Embodiment 57, 1-((4-Hydroxy-4-(trifluoromethyl)cyclohexyl)methyl)-7-isobutyl-3-methyl-1H-purine-2,6(3H,7H)-dione]",
1 to 10,"3,7-Dimethyl-1-[[3-[2,2,2-trifluoro-1-hydroxy-1-(trifluoromethyl)ethyl]cyclobutyl]methyl]purine-2,6-dione [Embodiment 8 isomer 1]",
10 to 50,Cn1c(=O)n(Cc2ccc(C(C)(O)C(F)(F)F)cn2)c(=O)c2c1ncn2CC1CC1 (centres unmarked) [Embodiment 56],
10 to 50,"Cn1c(=O)n(CC2CCC(C)(O)CC2)c(=O)c2c1ncn2CC1CC1 (single isomer, unassigned) [Embodiment 51 isomer 1]",
10 to 50,COCC1(Cn2c(=O)c3c(ncn3CC3CC3)n(C)c2=O)CCC(O)(C(F)(F)F)CC1 (centres unmarked) [Embodiment 52],
10 to 50,"Cn1c(=O)n(CCCCC(C)(O)C(F)(F)F)c(=O)c2c1ncn2C1CC1 (centres unmarked) [Embodiment 47, 7-Cyclopropyl-3-methyl-1-(6,6,6-trifluoro-5-hydroxy-5-methylhexyl)-1H-purine-2,6(3H,7H)-dione]",
10 to 50,"CCn1cnc2c1c(=O)n(CCCCC(C)(O)C(F)(F)F)c(=O)n2C (centres unmarked) [Embodiment 43, 7-Ethyl-3-methyl-1-(6,6,6-trifluoro-5-hydroxy-5-methylhexyl)-1H-purine-2,6(3H,7H)-dione]",
10 to 50,CC(C)n1cnc2c1c(=O)n(CC1CCC(O)(C(F)(F)F)CC1)c(=O)n2C (centres unmarked) [Embodiment 48],
1 to 10,"Cc1sc(C(C)(O)C(F)(F)F)nc1Cn1c(=O)c2c(ncn2CC2CC2)n(C)c1=O (centres unmarked) [Embodiment 54, 7-(Cyclopropylmethyl)-3-methyl-1-((5-methyl-2-(1,1,1-trifluoro-2-hydroxypropan-2-yl)thiazol-4-yl)methyl)-1H-purine-2,6-(3H,7H)-dione]",
